Entries after “also recorded” stand apart in the source; their conditions may differ.
Assays:
[1] = system: Arabidopsis thaliana Columbia-0; assay: Arabidopsis vertical plate growth assay (primary root length, shoot biomass); assay type: in vivo; settings: low phosphate
Procedure: (§1) All Arabidopsis plant experiments were performed using the Arabidopsis thaliana Columbia-0 background. The Arabidopsis pSPX1::GUS line is described in the […] 2008, 54: 965-975. For rice, the cultivar Nipponbare was used. For maize, the cultivars DKC 2931 and 8104 were used for regular pot experiments and sand-based pot experiments, respectively. For soybean, the cultivar Primus was used. […] The medium was solidified due to the addition of 0.6% Gelrite, unless stated otherwise. In case of vertical plates (root length and root hair measurements), the medium was supplied with 0.5% of sucrose and 1 μM (low phosphate, 1 μM KH2PO4, 9.9 mM KCl), 10 μM (low phosphate 10 μM KH2PO4, 9.9 mM KCl) or 1.25 mM KH2PO4 (high phosphate). Arabidopsis seeds were stratified for 2 days at 4° C. before germination. Seedlings were germinated in climate-controlled growth chambers at 22° C. under continuous light ([…] m^−2 s^−1). Husked rice seeds were germinated on wetted Whatman paper for 2 days at 37° C. and then transferred to Sterivent boxes or square Petri dishes with solid medium. Maize and soybean seeds were wetted 24 hours at room temperature prior to sowing in pots.
(§2) Arabidopsis primary root growth experiments were done on MS1/2 on vertical standing plates and roots were measured 11 days after germination. Roots were imaged using a flatbed scanner (EPSON Expression 11000XL) and root length was measured using ImageJ software. Arabidopsis shoot biomass was determined in 11 days after germination and growth on vertical standing plates with modMS. Arabidopsis leaf area was measured 21 days after germination on horizontal plates with modMS medium. Plates were scanned from the top using a flatbed scanner (EPSON Expression 11000XL) and the visible leaf area was measured using ImageJ software. Rice plate experiments used vertically standing Petri dishes containing MS1/2 medium (low phosphate—0.001 mM) solidified with 0.8% washed agar. Plant height was measured 11 days after germination. […] Plant height was measured 13 days after germination. […]

maize cultivar 8104 = assay: Sand-based maize pot experiment; assay type: in vivo; settings: low phosphate, 10 μM compound
Procedure: as §1
Regular Arabidopsis, soybean and maize pot experiments used an unfertilized potting soil, which was supplemented at the start of the experiment with 50 ml H2O containing 0.25 g/l NH4NO3 and 0.44 g/l (high phosphate) or no (maize and soybean) or 0.11 g/l KH2PO (Arabidopsis) for low phosphate conditions. For the sand-based maize pot experiment, sand was supplemented with 50 ml H2O containing 0.25 g/l NH4NO3 and 0.38 g/l (high phosphate) or 0.02 g/l (low phosphate) KH2PO4. Potassium was balanced via addition of KCl. Compound concentration was 10 μM, calculated based on the total water content after watering, and was added at the start of the experiment (Arabidopsis) or once a week (maize). Indexed chlorophyll contents were received via a SPAD 502 Plus Chlorophyll Meter. All parameters in the sand experiment, except the rate of leaf 4 (measured the first 4 days after emergence), were measured 19 days after sowing. Measurements in the pot experiments with potting soil were done after 4 weeks of growth, except for leaf 5, which was measured at 26 days. The long term maize pot experiment was performed on the automated Phenovision platform (see Mertens et al, 2021, https://doi.org/10.3389/fpls.2021.640914) with maize cultivars B104 and DKC2931. End point measurements occurred after 90 days (B104) or 70 days (DKC2931). Plants were grown on an unfertilized potting soil, which was fertilized bi-weekly with 50 mL modified Hoagland solution (2.5× concentrated; but with 0.25 mM KH2PO4).

rice cultivar Nipponbare = assay: Rice plate experiment (plant height); assay type: in vivo; settings: low phosphate 0.001 mM, 10 μM compound, 11 days after germination
Procedure: All Arabidopsis plant experiments were performed using the Arabidopsis thaliana Columbia-0 background. The Arabidopsis pSPX1::GUS line is described in the […] 2008, 54: 965-975. For rice, the cultivar Nipponbare was used. For maize, the cultivars DKC 2931 and 8104 were used for regular pot experiments and sand-based pot experiments, respectively. For soybean, the cultivar Primus was used. […] The medium was solidified due to the addition of 0.6% Gelrite, unless stated otherwise. […]
as §2, with “Rice plate experiments used vertically standing Petri dishes containing MS1/2 medium (low phosphate—0.001 mM) solidified with 0.8% washed agar.” left out

[2] = system: Arabidopsis thaliana Columbia-0; assay: Root hair number and length quantification, Arabidopsis vertical plate; assay type: in vivo
Procedure: as §1
Roots were imaged using a stereomicroscope or a VHX-6000. Number and length of the root hairs parallel to the medium surface was determined at 4 to 6 mm above the root meristem. Root hair length was measured using the ImageJ software.

[3] = system: SPX1 phosphate starvation biomarker (pSPX1::GUS); assay: Chemical activity assessment: SPX1 suppression in Arabidopsis pSPX1::GUS reporter line (GUS stained area); assay type: in vivo, Arabidopsis thaliana
Procedure: as §1
For the chemical activity assessment 3 to 8 seeds per well of Arabidopsis pSPX1::GUS line were sown in 96-well plates containing 150 μl of low phosphate modMS liquid medium containing 1% of sucrose. Compounds were added in 50 μM concentration, starting from a 5 mM stock of compounds solved in DMSO. Different chemical substances were separately added to different wells. Per plate, 16 control wells were used, 8 containing only the low phosphate medium and 1% DMSO, and 8 containing high phosphate medium and 1% DMSO. 7 days after germination, plates were scanned using a flatbed scanner (EPSON Expression 11000XL) and analyzed for leaf size. After scanning, the growth medium was replaced by GUS staining solution (see Plant Mol. Biol. Rep. 1994, 12: 37-42 for details) and incubated for 1.5 hours at 37° C. The plates were scanned a second time and analyzed for GUS signal area. Measurements of both leaf area and GUS signal area were conducted by filtering out and measure the green and blue signal, respectively using ImageJ software. If the green leaf area was 50% or less than the control, samples were omitted. Additionally, all results were visually screened for leaf size and GUS signal.
To identify new substances that suppress the expression of the SPX1 phosphate starvation biomarker, we used an Arabidopsis SPX1 reporter line pSPX1::GUS. […] This observation was confirmed in two experimental repeats.

[4] = Arabidopsis vertical plate, 10 μM compound, 11 days after germination
[5] = Arabidopsis vertical plate, high phosphate

CCN(CCCNc1ncnc2nc(N)ccc12)c1ccccc1 [Example 1]
Primary root length compared with the control without compound (in words) ([1]; 10 μM, 11-day-old Arabidopsis): almost double the length of the control
Primary root length [1, 4]: 3.4 cm
Shoot biomass [1, 4]: 21 mg
Crown root number (maize cultivar 8104; 19 days after sowing): 8
Plant height (maize cultivar 8104; 19 days after sowing): 27 cm
Indexed chlorophyll content (maize cultivar 8104; SPAD meter, 19 days after sowing): 31
Growth rate of leaf 4 (maize cultivar 8104; first 4 days after emergence): 2.64 cm/day
Plant height (rice cultivar Nipponbare): 15 cm
activity at 1 µM ([2]; Arabidopsis thaliana, 1 μM compound, read-out: Total root hair length per root (in % compared to the control)): 749%
Average root hair length per root in high phosphate conditions [2, 5]: 0.26 mm
Root hair number in high phosphate conditions (one plane in 2 mm region) [2, 5]: 9
Total root hair length per root in high phosphate conditions [2, 5]: 0.26 cm
GUS (SPX1) stained area normalized to the number of seeds ([3]; 50 μM compound, low phosphate modMS liquid medium, 96-well, 7 days after germination, low phosphate control of same plate): 0.3 pixels
Suppression of the SPX1 biomarker (in words) ([3]; low phosphate, 7 days of growth, GUS staining, listed as compound 17): practically completely suppressed the SPX1 biomarker; also recorded: strongest suppression of SPX1
